Laboratory results as given in patent US20240210412A1, “SULFONYL-TRIAZOLE COMPOUNDS USEFUL AS LIGANDS AND INHIBITORS OF PROSTAGLANDIN REDUCTASE 2” (University of Virginia Patent Foundation, priority 2021, published 2024).

Experiments:
PTGR2 [1] = target: T1, PTGR2 (Homo sapiens, UniProt Q8N8N7); test: gel-based ABPP, HHS-475 probe, HEK293T cells expressing recombinant PTGR2; assay type: cell-based; conditions: 25 μM-0.1 μM, 2 h; HHS-475 25 μM 2 h; compared with AMC-0702, HHS-0701
T1 construct: host or cells: HEK293T
T1 sequence (Q8N8N7 whole entry): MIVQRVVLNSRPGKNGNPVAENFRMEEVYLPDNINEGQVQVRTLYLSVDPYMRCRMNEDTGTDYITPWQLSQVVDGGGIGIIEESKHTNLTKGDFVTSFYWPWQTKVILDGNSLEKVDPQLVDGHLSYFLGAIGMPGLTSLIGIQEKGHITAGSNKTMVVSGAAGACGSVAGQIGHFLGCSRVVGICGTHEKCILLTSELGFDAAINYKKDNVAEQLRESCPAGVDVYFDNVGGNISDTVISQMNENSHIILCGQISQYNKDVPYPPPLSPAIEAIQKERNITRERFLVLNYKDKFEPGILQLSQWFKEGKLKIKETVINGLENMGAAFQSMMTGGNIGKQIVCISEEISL
Experimental: HEK293T cells at 30-50% confluency were transfected with 2.6 μg of FAH or PTGR2 plasmid DNA in a serum-free media/polyethyleneimine solution for 48 hrs. The cells were washed once with warm, sterile DPBS (1×, 5 mL), and then 10 mL of serum-free media (supplemented with 1% L-glutamine) containing either DMSO or SuTEx fragment (in DMSO) was added. After 2 hrs, the cells were treated with 100 μM of SuTEx alkyne probe (HHS-475, 10 μL of 1000× DMSO stock) and incubated for an additional 2 hrs. The media was aspirated and cells washed with cold PBS (5 mL) and harvested. Cells were spun at 500×g for 5 min at 4° C. and supernatant was removed. Pellets were resuspended in 1 mL of cold DPB S and spun at 1,400×g for 3 min at 4° C. and supernatant was removed. The cells were lysed in PBS by sonication and fractionated (100,000×g, 45 min, 4° C.). The soluble fraction was diluted to 1 mg/mL in PBS and 49 μL was used for analysis. […] The samples were analyzed by SDS-PAGE (30 μL) and imaged by in-gel fluorescence scanning.
Confirmatory studies were also performed on prostaglandin reductase 2 (PTGR2) because of its role in the reduction of the bioactive lipid, 15-keto-PGE2^[17]. […] The remaining fluorescent signal detected on PTGR2 Y100F mutant protein is likely due to probe labeling of additional tyrosine sites identified on wild-type protein.
To assess the PTGR2 inhibitory activity of AMC-0702 and AMC-0703, HEK293T cells expressing PTGR2 were pretreated with vehicle, HHS-0101 (25 μM), HHS-0701 (25 μM), AMC-0702 (25 μM-0.1 μM), or AMC-0703 (25 μM-0.1 μM) for 2 hours followed by HHS-475 probe labelling in live cells (25 μM, 2 hours). Cells were lysed and probe-modified PTGR2 in proteomes detected by copper-catalyzed azide-alkyne cycloaddition conjugation of rhodamine-azide, SDS-PAGE, and in-gel fluorescence scanning. Inhibitory activity of compounds is determined by reductions in fluorescent band intensity from HHS-475 probe labeling of proteins detected in proteomes. […]

PTGR2 [2] = target: T1, PTGR2; test: in vitro gel-based chemical proteomics competition, RJS-1027 probe; assay type: binding; conditions: inhibitor 0.5 μM, RJS-1027 1 μM, HEK293T soluble proteome
Experimental: Cell pellets were lysed in PBS buffer (EDTA free) by sonicating 3 times for 1 second×20% amplitude. The lysate was fractionated by centrifuging at 100,000×g for 45 min at 4° C., separating membrane and soluble fractions. Only the soluble fraction was used for in vitro and in situ experiments. Protein concentrations were measured using the Bio-Rad DC protein assay, and fractions were diluted to a concentration of 2 mg/mL in PBS. For live cell treated samples, 50 μL aliquots of proteome were used for gel experiments. For in vitro experiments, 48 μL aliquots of cell lysate were used for each inhibitor before adding 1 μL of 50× inhibitor stock (1 μM final) and incubated for 30 minutes at 37° C., then 1 μL of 50×probe stock (1 μM final) was added and the lysate incubated for 30 minutes at 37° C. […] 30 μL of each sample were separated by SDSPAGE and analyzed by in-gel fluorescence scanning for the rhodamine azide tag. […]
FIG. 9A is an image of an in vitro gel-based chemical proteomics assay using RJS-1027 (1 μM) as a probe to measure competition of binding PTGR2 with an inhibitor (0.5 μM). […] Quantitative comparison of inhibitor competition with probe labeling normalized to the negative control HHS-0101 is shown in FIG. 9B. […] Quantitative comparison of RJG-2036 competition with probe labeling normalized to the negative control HHS-0101 is shown in FIG. 9D.

[3] = target: T2, recombinant prostaglandin reductase 2 (PTGR2) (Homo sapiens, UniProt Q8N8N7); test: in situ gel-based chemical proteomics competition, RJS-1027 probe; assay type: cell-based; conditions: RJS-1027 1 μM, normalized to PTGR2 WT, two biological replicates, read-out: 50% inhibitory concentration (IC50), competition with probe labeling
T2 construct: host or cells: HEK293T
T2 sequence (Q8N8N7 whole entry): as above
Experimental: HEK293T cells were grown to 30-40% confluency and transiently transfected with wild type PTGR2 or Y100F PTGR2 mutant plasmid or DMSO by dissolving 20 μL of PEI (1 mg/mL) and 2.6 μg of plasmid in 0.6 mL of serum-free DMEM media. Transfected HEK293T cells were incubated at 37° C. with 5% CO2 and were harvested for in vitro experiments. For in situ experiments, cells were treated with either DMSO or inhibitors at a final concentration of 1 μM, or the indicated concentration, of inhibitors from a 1,000× stock in serum-free media. Cells were subsequently incubated at 37° C. with 5% CO2 for 2 hours, followed by treatment with DMSO or probe at a final concentration of 1 μM from a 1,000× stock in serum-free media. Cells were harvested and pelleted at 400×g for 5 min and the supernatant was decanted. […]
Cell pellets were lysed in PBS buffer (EDTA free) by sonicating 3 times for 1 second×20% amplitude. […] Protein concentrations were measured using the Bio-Rad DC protein assay, and fractions were diluted to a concentration of 2 mg/mL in PBS. […] 30 μL of each sample were separated by SDSPAGE and analyzed by in-gel fluorescence scanning for the rhodamine azide tag. […]
Anti-flag and GAPDH western blots are shown below the long gel and were performed separately. Quantitation of RJG-2036 competition with probe labeling normalized to the PTGR2 WT with RJS-1027 as a probe is shown in FIG. 10C.

| potency against PTGR2 (reduction of HHS-475 probe labeling) (PTGR2 [1]) | competition of probe binding to PTGR2 (PTGR2 [2]) | IC50 [3] [nM] | SMILES |
| --- | --- | --- | --- |
| highest potency against PTGR2 | potent inhibitors | – | COc1ccccc1N1CCN(C(=O)c2ccc(S(=O)(=O)n3cncn3)cc2)CC1 [AMC-0703, (4-((1H-1,2,4-triazol-1-yl)sulfonyl)phenyl)(4-(2-methoxyphenyl)piperazin-1-yl)methanone] |
| – | potent inhibitors | – | COc1ccccc1N1CCN(C(=O)c2ccc(S(=O)(=O)n3cnc(-c4cccnc4)n3)cc2)CC1 [RJG-1189, (4-(2-methoxyphenyl)piperazin-1-yl)(4-((3-(pyridin-3-yl)-1H-1,2,4-triazol-1-yl)sulfonyl)phenyl)methanone] |
| – | – | 89.5 | COc1ccccc1N1CCN(C(=O)c2cccc(S(=O)(=O)n3cncn3)c2)CC1 [RJG-2036, (3-((1H-1,2,4-triazol-1-yl)sulfonyl)phenyl)(4-(2-methoxyphenyl)piperazin-1-yl)methanone] |
